ChEMBL document CHEMBL1201862, “PubChem BioAssay data set” (2004)
The source made the active and inactive calls. No rule for the calls is given here.

Target: T1, Exodeoxyribonuclease V (Escherichia coli (strain K12), UniProt P04993+P07648+P08394)
T1 sequence (P04993 whole entry): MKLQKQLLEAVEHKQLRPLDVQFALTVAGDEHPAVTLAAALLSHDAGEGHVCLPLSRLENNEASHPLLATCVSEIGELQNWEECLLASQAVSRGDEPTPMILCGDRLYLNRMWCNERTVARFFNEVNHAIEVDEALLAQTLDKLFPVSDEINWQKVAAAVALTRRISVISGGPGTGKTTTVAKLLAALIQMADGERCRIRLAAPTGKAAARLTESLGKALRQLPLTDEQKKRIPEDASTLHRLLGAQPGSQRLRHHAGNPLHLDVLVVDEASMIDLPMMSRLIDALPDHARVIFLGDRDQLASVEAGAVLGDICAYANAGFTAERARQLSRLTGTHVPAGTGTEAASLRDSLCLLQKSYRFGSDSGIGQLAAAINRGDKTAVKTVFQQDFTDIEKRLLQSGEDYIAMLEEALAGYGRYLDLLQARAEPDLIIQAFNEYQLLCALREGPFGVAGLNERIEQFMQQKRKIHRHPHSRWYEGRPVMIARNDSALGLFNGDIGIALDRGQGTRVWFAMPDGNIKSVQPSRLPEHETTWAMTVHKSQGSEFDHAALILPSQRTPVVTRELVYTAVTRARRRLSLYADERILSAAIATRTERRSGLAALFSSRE
T1 sequence (P07648 whole entry): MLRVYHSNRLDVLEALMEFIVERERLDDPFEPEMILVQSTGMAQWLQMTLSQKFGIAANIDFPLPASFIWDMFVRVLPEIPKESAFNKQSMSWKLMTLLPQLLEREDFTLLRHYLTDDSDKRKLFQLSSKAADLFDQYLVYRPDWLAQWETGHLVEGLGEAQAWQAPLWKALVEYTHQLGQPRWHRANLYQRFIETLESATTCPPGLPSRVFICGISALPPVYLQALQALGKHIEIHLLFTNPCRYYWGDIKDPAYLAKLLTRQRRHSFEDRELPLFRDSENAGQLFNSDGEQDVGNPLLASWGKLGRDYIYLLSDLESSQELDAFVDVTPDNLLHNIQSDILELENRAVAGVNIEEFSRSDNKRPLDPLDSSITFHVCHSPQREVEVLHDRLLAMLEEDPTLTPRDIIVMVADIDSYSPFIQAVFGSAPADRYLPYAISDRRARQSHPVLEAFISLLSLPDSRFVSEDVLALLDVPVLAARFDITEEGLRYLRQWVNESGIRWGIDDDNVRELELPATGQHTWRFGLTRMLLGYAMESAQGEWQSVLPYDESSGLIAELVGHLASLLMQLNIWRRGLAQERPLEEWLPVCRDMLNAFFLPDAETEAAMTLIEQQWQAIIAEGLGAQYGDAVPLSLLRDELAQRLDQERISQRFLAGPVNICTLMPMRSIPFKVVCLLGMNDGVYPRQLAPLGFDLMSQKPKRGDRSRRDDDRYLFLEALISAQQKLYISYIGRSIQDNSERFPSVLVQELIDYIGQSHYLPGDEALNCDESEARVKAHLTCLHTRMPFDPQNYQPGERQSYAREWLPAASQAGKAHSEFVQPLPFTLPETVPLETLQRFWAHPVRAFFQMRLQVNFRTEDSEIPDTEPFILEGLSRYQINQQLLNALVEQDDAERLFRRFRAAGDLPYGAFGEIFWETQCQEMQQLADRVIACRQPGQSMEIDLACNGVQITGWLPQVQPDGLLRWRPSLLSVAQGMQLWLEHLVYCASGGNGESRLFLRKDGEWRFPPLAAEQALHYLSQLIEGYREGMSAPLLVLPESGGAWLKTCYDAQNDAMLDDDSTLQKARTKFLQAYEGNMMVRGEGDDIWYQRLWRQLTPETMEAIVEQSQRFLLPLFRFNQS
T1 sequence (P08394 whole entry): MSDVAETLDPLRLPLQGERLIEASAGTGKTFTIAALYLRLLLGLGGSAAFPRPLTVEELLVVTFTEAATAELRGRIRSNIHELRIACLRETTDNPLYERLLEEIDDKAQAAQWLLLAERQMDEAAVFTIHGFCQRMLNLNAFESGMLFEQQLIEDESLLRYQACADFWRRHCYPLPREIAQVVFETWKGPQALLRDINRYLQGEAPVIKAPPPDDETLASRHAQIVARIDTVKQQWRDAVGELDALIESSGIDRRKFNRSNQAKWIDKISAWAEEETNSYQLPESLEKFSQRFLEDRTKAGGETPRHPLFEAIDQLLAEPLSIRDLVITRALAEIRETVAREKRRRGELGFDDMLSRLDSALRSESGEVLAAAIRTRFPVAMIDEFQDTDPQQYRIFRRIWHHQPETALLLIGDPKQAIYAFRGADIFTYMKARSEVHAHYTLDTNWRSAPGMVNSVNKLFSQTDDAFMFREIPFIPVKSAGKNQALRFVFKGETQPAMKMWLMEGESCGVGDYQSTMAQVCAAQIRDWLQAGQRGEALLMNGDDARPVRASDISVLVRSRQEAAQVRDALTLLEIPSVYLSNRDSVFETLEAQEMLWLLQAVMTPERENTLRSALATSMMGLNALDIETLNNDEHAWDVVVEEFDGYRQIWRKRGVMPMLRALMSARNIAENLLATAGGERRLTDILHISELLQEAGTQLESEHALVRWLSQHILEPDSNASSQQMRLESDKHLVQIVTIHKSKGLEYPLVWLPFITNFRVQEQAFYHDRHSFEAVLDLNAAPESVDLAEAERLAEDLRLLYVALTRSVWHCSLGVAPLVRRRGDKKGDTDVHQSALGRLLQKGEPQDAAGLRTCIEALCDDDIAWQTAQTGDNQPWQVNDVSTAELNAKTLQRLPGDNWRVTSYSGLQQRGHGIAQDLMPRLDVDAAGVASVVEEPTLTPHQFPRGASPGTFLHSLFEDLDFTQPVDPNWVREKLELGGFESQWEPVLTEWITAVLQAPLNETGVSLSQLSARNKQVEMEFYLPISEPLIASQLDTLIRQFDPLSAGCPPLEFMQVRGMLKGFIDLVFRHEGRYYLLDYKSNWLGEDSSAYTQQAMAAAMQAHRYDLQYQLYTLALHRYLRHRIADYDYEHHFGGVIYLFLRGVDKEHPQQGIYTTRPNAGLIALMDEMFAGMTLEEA
Experiment: RecBCD inhibition via phage-restricted bacterial growth – absorbance, V66 E. coli, mutant T4 phage, counter-screen for AddAB inhibitor project, dose response (AID 492957)
Assay type: functional, cell-based, Escherichia coli str. K-12 substr. MG1655

Structure (SMILES): CCCC(=O)NC(c1ccc(N(C)C)cc1)c1ccc2cccnc2c1O (stereo unspecified)
- IC50: > 119 µM (inactive)
